Laboratory results from US20200054633A1 (priority 2017, published 2020).
Like-named read-outs stand apart in the source and are kept apart here.

Conditions: OST placebo, N=74
Text: This study followed a randomized, double-blind, placebo-controlled, parallel-group, multicenter design.
Analysis set for safety: Safety Set included all subjects who received at least 1 dose of study drug.

O=C(O)[C@H]1C2CCC(CC2)[C@@H]1Nc1nc(-c2c[nH]c3ncc(F)cc23)ncc1F [Compound (1), Pimodivir]
Any Serious TEAE (300 mg): 0 | Any Serious TEAE at least possibly related to study medication (300 mg): 0 | Any Severe (Grade 3) TEAE (300 mg): 2 (2.7%) | Any TEAE (300 mg): 32 | Any TEAE at least possibly related to study medication (300 mg): 9 | Any TEAE leading to a temporary stop of study medication (300 mg): 2 | Any TEAE leading to permanent stop of study medication (300 mg): 7 | Any TEAE with fatal outcome (300 mg): 0 | Grade 3 TEAE: Anaemia (300 mg): 0 | Grade 3 TEAE: Balance disorder (300 mg): 0 | Grade 3 TEAE: Blood and lymphatic system disorders (300 mg): 0 | Grade 3 TEAE: Blood creatine phosphokinase increased (300 mg): 0 | Grade 3 TEAE: Bronchitis (300 mg): 1 (1.4%) | Grade 3 TEAE: Constipation (300 mg): 0 | Grade 3 TEAE: Diarrhoea (300 mg): 0 | Grade 3 TEAE: Fatigue (300 mg): 1 (1.4%) | Grade 3 TEAE: Gastrointestinal disorders (300 mg): 0 | Grade 3 TEAE: General disorders and administration site conditions (300 mg): 1 (1.4%) | Grade 3 TEAE: Hyperkalaemia (300 mg): 0 | Grade 3 TEAE: Infections and infestations (300 mg): 1 (1.4%) | Grade 3 TEAE: Investigations (300 mg): 0 | Grade 3 TEAE: Lymphopenia (300 mg): 0 | Grade 3 TEAE: Metabolism and nutrition disorders (300 mg): 0 | Grade 3 TEAE: Nausea (300 mg): 0 | Grade 3 TEAE: Nervous system disorders (300 mg): 1 (1.4%) | Grade 3 TEAE: Neutropenia (300 mg): 0 | Grade 3 TEAE: Neutrophil count decreased (300 mg): 0 | Grade 3 TEAE: Protein urine present (300 mg): 0 | Grade 3 TEAE: Syncope (300 mg): 1 (1.4%) | Grade 3 TEAE: Thrombocytopenia (300 mg): 0 | Grade 3 TEAE: Vomiting (300 mg): 0 | TEAE: Abdominal discomfort (300 mg): 0 n (%) | TEAE: Abdominal pain (300 mg): 0 n (%) | TEAE: Abdominal pain upper (300 mg): 0 n (%) | TEAE: Abdominal tenderness (300 mg): 0 n (%) | TEAE: Alanine aminotransferase increased (300 mg): 1 n (%) | TEAE: All events (300 mg): 32 n (%) | TEAE: Anaemia (300 mg): 0 n (%) | TEAE: Aphthous stomatitis (300 mg): 0 n (%) | TEAE: Aspartate aminotransferase increased (300 mg): 1 n (%) | TEAE: Atrioventricular block first degree (300 mg): 0 n (%) | TEAE: Back pain (300 mg): 1 n (%) | TEAE: Bacterial vaginosis (300 mg): 0 n (%) | TEAE: Balance disorder (300 mg): 0 n (%) | TEAE: Blood and lymphatic system disorders (300 mg): 3 n (%) | TEAE: Blood bicarbonate decreased (300 mg): 0 n (%) | TEAE: Blood bilirubin decreased (300 mg): 0 n (%) | TEAE: Blood bilirubin increased (300 mg): 1 n (%) | TEAE: Blood creatine phosphokinase increased (300 mg): 2 n (%) | TEAE: Blood creatinine increased (300 mg): 1 n (%) | TEAE: Blood glucose increased (300 mg): 1 n (%) | TEAE: Blood potassium increased (300 mg): 0 n (%) | TEAE: Blood pressure diastolic increased (300 mg): 0 n (%) | TEAE: Blood urine (300 mg): 1 n (%) | TEAE: Bradycardia (300 mg): 0 n (%) | TEAE: Bronchitis (300 mg): 1 n (%) | TEAE: Cardiac disorders (300 mg): 1 n (%) | TEAE: Constipation (300 mg): 0 n (%) | TEAE: Contusion (300 mg): 0 n (%) | TEAE: Cough (300 mg): 0 n (%) | TEAE: Decreased appetite (300 mg): 0 n (%) | TEAE: Dehydration (300 mg): 0 n (%) | TEAE: Diabetes mellitus (300 mg): 1 n (%) | TEAE: Diarrhoea (300 mg): 5 n (%) | TEAE: Dizziness (300 mg): 0 n (%) | TEAE: Dry mouth (300 mg): 0 n (%) | TEAE: Dry skin (300 mg): 0 n (%) | TEAE: Dysgeusia (300 mg): 0 n (%) | TEAE: Dyspepsia (300 mg): 1 n (%) | TEAE: Dyspnoea (300 mg): 1 n (%) | TEAE: Dysuria (300 mg): 0 n (%) | TEAE: Ear and labyrinth disorders (300 mg): 0 n (%) | TEAE: Ear discomfort (300 mg): 0 n (%) | TEAE: Ecchymosis (300 mg): 0 n (%) | TEAE: Electrocardiogram ST segment depression (300 mg): 0 n (%) | TEAE: Enteritis (300 mg): 0 n (%) | TEAE: Fatigue (300 mg): 1 n (%) | TEAE: Fungal infection (300 mg): 0 n (%) | TEAE: Gamma-glutamyltransferase increased (300 mg): 0 n (%) | TEAE: Gastrointestinal disorders (300 mg): 10 n (%) | TEAE: General disorders and administration site conditions (300 mg): 2 n (%) | TEAE: Glomerular filtration rate decreased (300 mg): 4 n (%) | TEAE: Gout (300 mg): 1 n (%) | TEAE: HIV antibody positive (300 mg): 0 n (%) | TEAE: HIV test positive (300 mg): 0 n (%) | TEAE: Haematuria (300 mg): 1 n (%) | TEAE: Haemoglobin decreased (300 mg): 2 n (%) | TEAE: Haemoglobin increased (300 mg): 0 n (%) | TEAE: Headache (300 mg): 2 n (%) | TEAE: Hepatic enzyme increased (300 mg): 0 n (%) | TEAE: Hepatitis C (300 mg): 1 n (%) | TEAE: Herpes simplex (300 mg): 0 n (%) | TEAE: Hyperglycaemia (300 mg): 0 n (%) | TEAE: Hyperhidrosis (300 mg): 0 n (%) | TEAE: Hyperkalaemia (300 mg): 0 n (%) | TEAE: Hyperproteinaemia (300 mg): 1 n (%) | TEAE: Hypertension (300 mg): 0 n (%) | TEAE: Hyperuricaemia (300 mg): 0 n (%) | TEAE: Hypokalaemia (300 mg): 0 n (%) | TEAE: Hyponatraemia (300 mg): 1 n (%) | TEAE: Hypophosphataemia (300 mg): 2 n (%) | TEAE: Hypothermia (300 mg): 1 n (%) | TEAE: Increased appetite (300 mg): 0 n (%) | TEAE: Infections and infestations (300 mg): 5 n (%) | TEAE: Injury, poisoning and procedural complications (300 mg): 0 n (%) | TEAE: Insomnia (300 mg): 2 n (%) | TEAE: Investigations (300 mg): 8 n (%) | TEAE: Irritability (300 mg): 0 n (%) | TEAE: Labyrinthitis (300 mg): 0 n (%) | TEAE: Leukopenia (300 mg): 0 n (%) | TEAE: Lymph node pain (300 mg): 1 n (%) | TEAE: Lymphadenopathy (300 mg): 1 n (%) | TEAE: Lymphopenia (300 mg): 0 n (%) | TEAE: Metabolism and nutrition disorders (300 mg): 4 n (%) | TEAE: Micturition urgency (300 mg): 0 n (%) | TEAE: Middle ear effusion (300 mg): 0 n (%) | TEAE: Migraine (300 mg): 0 n (%) | TEAE: Muscle spasms (300 mg): 0 n (%) | TEAE: Musculoskeletal and connective tissue disorders (300 mg): 2 n (%) | TEAE: Musculoskeletal chest pain (300 mg): 1 n (%) | TEAE: Myalgia (300 mg): 0 n (%) | TEAE: Myocarditis (300 mg): 0 n (%) | TEAE: Nasal congestion (300 mg): 0 n (%) | TEAE: Nausea (300 mg): 3 n (%) | TEAE: Nephropathy (300 mg): 0 n (%) | TEAE: Nervous system disorders (300 mg): 4 n (%) | TEAE: Neutropenia (300 mg): 0 n (%) | TEAE: Neutrophil count decreased (300 mg): 1 n (%) | TEAE: Oedema peripheral (300 mg): 0 n (%) | TEAE: Oral herpes (300 mg): 0 n (%) | TEAE: Otitis media (300 mg): 0 n (%) | TEAE: Paraesthesia (300 mg): 1 n (%) | TEAE: Percussion test abnormal (300 mg): 1 n (%) | TEAE: Petechiae (300 mg): 0 n (%) | TEAE: Pharyngitis streptococcal (300 mg): 0 n (%) | TEAE: Pneumonia chlamydial (300 mg): 0 n (%) | TEAE: Protein urine (300 mg): 1 n (%) | TEAE: Protein urine present (300 mg): 0 n (%) | TEAE: Proteinuria (300 mg): 3 n (%) | TEAE: Pruritus (300 mg): 0 n (%) | TEAE: Psychiatric disorders (300 mg): 3 n (%) | TEAE: Rash (300 mg): 0 n (%) | TEAE: Red blood cells urine (300 mg): 1 n (%) | TEAE: Renal and urinary disorders (300 mg): 6 n (%) | TEAE: Renal failure (300 mg): 1 n (%) | TEAE: Renal failure chronic (300 mg): 1 n (%) | TEAE: Renal impairment (300 mg): 1 n (%) | TEAE: Respiratory, thoracic and mediastinal disorders (300 mg): 1 n (%) | TEAE: Rhonchi (300 mg): 1 n (%) | TEAE: Sensation of foreign body (300 mg): 0 n (%) | TEAE: Sinus bradycardia (300 mg): 0 n (%) | TEAE: Sinus congestion (300 mg): 0 n (%) | TEAE: Sinus tachycardia (300 mg): 1 n (%) | TEAE: Sinusitis (300 mg): 3 n (%) | TEAE: Skin and subcutaneous tissue disorders (300 mg): 0 n (%) | TEAE: Sleep disorder (300 mg): 0 n (%) | TEAE: Sleep terror (300 mg): 1 n (%) | TEAE: Syncope (300 mg): 1 n (%) | TEAE: Tachycardia (300 mg): 0 n (%) | TEAE: Thrombocytopenia (300 mg): 1 n (%) | TEAE: Tinnitus (300 mg): 0 n (%) | TEAE: Tongue discolouration (300 mg): 1 n (%) | TEAE: Tremor (300 mg): 0 n (%) | TEAE: Upper respiratory tract infection (300 mg): 0 n (%) | TEAE: Urinary tract infection (300 mg): 0 n (%) | TEAE: Urine ketone body present (300 mg): 1 n (%) | TEAE: Vascular disorders (300 mg): 0 n (%) | TEAE: Vertigo (300 mg): 0 n (%) | TEAE: Vomiting (300 mg): 1 n (%) | TEAE: Wheezing (300 mg): 1 n (%) | TEAE: White blood cell count decreased (300 mg): 0 n (%) | Worst grade 1 or 2 TEAE (300 mg): 30 | Worst grade 3 TEAE (300 mg): 2 | Worst grade 3 or 4 TEAE (300 mg): 2 | Worst grade 4 TEAE (300 mg): 0 | Any Serious TEAE (600 mg): 1 (1.4%) | Any Serious TEAE at least possibly related to study medication (600 mg): 0 | Any Severe (Grade 3) TEAE (600 mg): 5 (6.8%)
